Measurements reported in patent US10759781B2, “Substituted guanidine derivatives” (UBE INDUSTRIES, LTD., priority 2015, dated 2020).

Tests used:
[1] = system: Human normal hepatic sinusoid-like microvascular endothelial cells; assay type: cell-based; settings: 2 days, 300 nM
Procedure: The Cytotoxicity Inhibition Test in Human Normal Hepatic Sinusoid-Like Microvascular Endothelial Cells
(§1) Human normal hepatic sinusoid-like microvascular endothelial cells were plated at 6000 cells/well in a collagen-coated 96-well culture plate. After one day of culture, the medium at each well was completely removed by aspiration and replaced with 50 μL of the compound solution diluted with the basal medium. The basal medium containing 0.1% DMSO was added to control wells. Following, the plate was incubated in CO2 incubator for 30 minutes. Fifty microliter of 2 mM methylamine diluted with the basal medium was added (final concentration 1 mM) to each negative control well (0% inhibition) as well as the compound-containing well, and 50 μL of the basal medium was added to each positive control well (100% inhibition). The plate was incubated in CO2 incubator for 2 days. Ten microliter of CCK-8 was added to each well and the mixtures were incubated in a plate incubator at 37° C. for approximately 2 hours after stirring with a plate shaker. The absorbance of the mixtures at 450 nm was measured with a multiplate reader. The cytotoxicity inhibition ratio of the compound was calculated from the following equation. Inhibition ratio={[Average absorbance of the compound-containing wells]−[Average absorbance of negative control wells]}/{[Average absorbance of positive control wells]−[Average absorbance of negative control wells]}×100

[2] = biological target: T1, Human VAP-1 enzyme (Homo sapiens, UniProt Q16853); assay: Human VAP-1 enzyme inhibition test; assay type: biochemical; settings: 1 h; compound 30 nM; 14C-benzylamine 100 μM; read-out: inhibition ratio (human VAP-1 enzyme)
T1 construct: purchased R&D Systems, Inc
T1 sequence (Q16853 1-763): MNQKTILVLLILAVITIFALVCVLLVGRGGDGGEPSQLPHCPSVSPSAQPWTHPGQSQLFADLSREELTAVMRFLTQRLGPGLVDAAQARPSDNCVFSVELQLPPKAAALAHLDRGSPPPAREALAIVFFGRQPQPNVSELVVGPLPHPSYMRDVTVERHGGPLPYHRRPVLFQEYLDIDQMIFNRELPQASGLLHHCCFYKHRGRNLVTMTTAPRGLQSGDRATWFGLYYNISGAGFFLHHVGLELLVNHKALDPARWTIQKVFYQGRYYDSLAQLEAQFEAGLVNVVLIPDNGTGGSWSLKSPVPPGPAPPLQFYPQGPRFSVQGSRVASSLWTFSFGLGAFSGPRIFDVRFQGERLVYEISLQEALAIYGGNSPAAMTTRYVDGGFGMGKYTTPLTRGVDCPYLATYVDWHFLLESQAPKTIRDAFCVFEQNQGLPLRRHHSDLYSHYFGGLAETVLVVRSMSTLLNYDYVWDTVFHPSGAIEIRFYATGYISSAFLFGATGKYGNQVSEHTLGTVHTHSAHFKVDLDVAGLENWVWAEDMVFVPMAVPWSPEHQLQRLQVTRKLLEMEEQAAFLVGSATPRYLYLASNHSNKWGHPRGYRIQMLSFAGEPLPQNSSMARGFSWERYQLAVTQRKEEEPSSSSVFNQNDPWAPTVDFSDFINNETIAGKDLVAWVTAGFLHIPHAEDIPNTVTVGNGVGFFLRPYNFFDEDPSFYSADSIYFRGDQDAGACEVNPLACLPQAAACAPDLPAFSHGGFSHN
In short: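 Activity measured as radioactive oxidation product of 14C-benzylamine (100 μM final), extracted with toluene/ethyl acetate after citric acid stop and scintillation-counted. Enzyme (recombinant human VAP-1) first exposed to compound 20 min at room temperature, reaction then 1 h at 37 °C. Percent inhibition versus DMSO control.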

[3] = system: Human normal glomerular microvascular endothelial cells; assay type: cell-based; settings: 2 days, 100 nM
Procedure: The Cytotoxicity Inhibition Test in Human Normal Glomerular Microvascular Endothelial Cells
as §1, with “glomerular” for “hepatic sinusoid-like”

CON=C1CN(c2ncc(-c3cccc(COC(=O)NC(=N)N)c3F)cc2F)C1 [Example 36, 2-fluoro-3-{5-fluoro-6-[3-(methoxyimino)azetidin-1-yl]pyridin-3-yl}benzyl carbamimidoylcarbamate]
≥ 50%: cytotoxicity inhibition ratio [1] | inhibition at 0.03 µM [2] | cytotoxicity inhibition ratio [3]

[2H]C([2H])([2H])ON=C1CN(c2ncc(-c3cccc(COC(=O)NC(=N)N)c3F)cc2F)C1 [Example 37, 2-fluoro-3-(5-fluoro-6-{3-[(methoxy-d3)imino]azetidin-1-yl}pyridin-3-yl)benzyl carbamimidoylcarbamate]
≥ 50%: cytotoxicity inhibition ratio [1] | inhibition at 0.03 µM [2] | cytotoxicity inhibition ratio [3]

N=C(N)NC(=O)OCc1cccc(-c2cnc(N3CC(=NOCCC(O)CO)C3)c(F)c2)c1F (stereo not drawn) [Example 95, 3-(6-{3-[(3,4-Dihydroxybutoxy)imino]azetidin-1-yl}-5-fluoropyridin-3-yl)-2-fluorobenzyl carbamimidoylcarbamate]
≥ 50%: cytotoxicity inhibition ratio [1] | inhibition at 0.03 µM [2] | cytotoxicity inhibition ratio [3]

N=C(N)NC(=O)OCc1cccc(-c2cnc(N3CC(=NOCC(CO)CO)C3)c(F)c2)c1F [Example 96, 2-Fluoro-3-{5-fluoro-6-[3-{[3-hydroxy-2-(hydroxymethyl)propoxy]imino}azetidin-1-yl]pyridin-3-yl}benzyl carbamimidoylcarbamate]
≥ 50%: cytotoxicity inhibition ratio [1] | inhibition at 0.03 µM [2] | cytotoxicity inhibition ratio [3]

N=C(N)NC(=O)OCc1cccc(-c2cnc(N3CC(=NOCC(F)CO)C3)nc2)c1F (stereo not drawn) [Example 102, 2-Fluoro-3-(2-{3-[(2-fluoro-3-hydroxypropoxy)imino]azetidin-1-yl}pyrimidin-5-yl)benzyl carbamimidoylcarbamate]
≥ 50%: cytotoxicity inhibition ratio [1] | inhibition at 0.03 µM [2] | cytotoxicity inhibition ratio [3]
